Legend:
[1] = biological target: T1, Fatty acid-binding protein, liver (Rattus norvegicus, UniProt P02692); test: Displacement of 1-anilinonaphthalene-8-sulphonic acid from rat recombinant L-FABP high binding affinity site expressed in Escherichia coli BL21 by competitive fluorescence displacement assay
T1 sequence (P02692 whole entry): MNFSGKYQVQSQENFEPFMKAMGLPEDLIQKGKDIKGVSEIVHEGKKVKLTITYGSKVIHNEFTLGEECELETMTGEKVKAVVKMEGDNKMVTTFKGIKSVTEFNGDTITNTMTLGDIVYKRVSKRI

[2] = biological target: T2, Fatty acid-binding protein, intestinal (Homo sapiens, UniProt P12104); test: Displacement of 1-anilinonaphthalene-8-sulphonic acid from I-FABP
T2 sequence (P12104 whole entry): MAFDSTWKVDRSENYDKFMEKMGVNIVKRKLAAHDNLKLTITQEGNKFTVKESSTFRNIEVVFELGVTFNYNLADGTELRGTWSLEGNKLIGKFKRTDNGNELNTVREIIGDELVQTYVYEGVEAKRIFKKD

[3] = biological target: T1, Fatty acid-binding protein, liver; test: Displacement of 1-anilinonaphthalene-8-sulphonic acid from rat recombinant L-FABP low binding affinity site expressed in Escherichia coli BL21 by competitive fluorescence displacement assay

With CC(=O)[C@H]1CC[C@H]2[C@@H]3CCC4=CC(=O)CC[C@]4(C)[C@H]3CC[C@]12C [PROGESTERONE] the Ki ([1]; read-out: Ki) was 0.027 µM and the Ki [2] was 20 µM.
CCOC(=O)C(C)(C)Oc1ccc(Cl)cc1 [CLOFIBRATE] showed a Ki ([1]; read-out: Ki) of 6.92 µM.
With C[C@]12C=CC(=O)C=C1CC[C@@H]1[C@@H]2[C@@H](O)C[C@@]2(C)[C@H]1CC[C@]2(O)C(=O)CO [PREDNISOLONE] the Ki ([1]; read-out: Ki) was 2.66 µM and the Ki ([3]; read-out: Ki) was 101 µM.
With CC(C)OC(=O)C(C)(C)Oc1ccc(C(=O)c2ccc(Cl)cc2)cc1 [FENOFIBRATE] the Ki ([1]; read-out: Ki) was 0.024 µM and the Ki ([3]; read-out: Ki) was 0.405 µM.
For O=C(c1ccccc1)c1ccc2n1CCC2C(=O)O (stereo not given) [KETOROLAC], the Ki ([1]; read-out: Ki) was 11.6 µM and the Ki ([3]; read-out: Ki) was 119 µM.
Compound C[C@@H]1C[C@H]2[C@@H]3CCC4=CC(=O)C=C[C@]4(C)[C@@]3(F)[C@@H](O)C[C@]2(C)[C@@]1(O)C(=O)CO [DEXAMETHASONE] has a Ki ([1]; read-out: Ki) of 22.1 µM and a Ki ([3]; read-out: Ki) of 41.3 µM.
Compound CC(C)(C)NCC(O)COc1cccc2c1CC(O)C(O)C2 (stereo not given) [NADOLOL] has a Ki ([1]; read-out: Ki) of 2310 µM.
Work on O=C1Nc2ccc(Cl)cc2C(c2ccccc2Cl)=NC1O (stereo not given) [LORAZEPAM] yielded a Ki ([1]; read-out: Ki) of 12.9 µM and a Ki ([3]; read-out: Ki) of 140 µM.
Compound CC(=O)Oc1ccccc1C(=O)O [ASPIRIN] has a Ki [1] of 348 µM and a Ki [3] of 3780 µM.
CC(C)Cc1ccc(C(C)C(=O)O)cc1 (stereo not given) [IBUPROFEN] was tested, and the Ki ([1]; read-out: Ki) was 47.6 µM and the Ki ([3]; read-out: Ki) was 448 µM.
Compound Cc1ccc(Cl)c(Nc2ccccc2C(=O)O)c1Cl [MECLOFENAMIC ACID] has a Ki ([1]; read-out: Ki) of 0.379 µM, a Ki [2] of 8.9 µM and a Ki ([3]; read-out: Ki) of 0.256 µM.
Work on CC(C)(Oc1ccc(C(=O)c2ccc(Cl)cc2)cc1)C(=O)O [FENOFIBRIC ACID] yielded a Ki ([1]; read-out: Ki) of 0.334 µM, a Ki [2] of 1 µM and a Ki ([3]; read-out: Ki) of 27.5 µM.
CC(C)(Oc1ccc(CCNC(=O)c2ccc(Cl)cc2)cc1)C(=O)O [BEZAFIBRATE] gave a Ki [2] of 33 µM and a Ki ([3]; read-out: Ki) of 44.4 µM.
Compound CC(C(=O)O)c1ccc(N2Cc3ccccc3C2=O)cc1 (stereo not given) [INDOPROFEN] has a Ki ([1]; read-out: Ki) of 1.27 µM and a Ki ([3]; read-out: Ki) of 161 µM.
With O=C(O)Cc1ccccc1Nc1c(Cl)cccc1Cl [DICLOFENAC] the Ki ([1]; read-out: Ki) was 3.22 µM and the Ki ([3]; read-out: Ki) was 35.4 µM.
Cc1ccc(C)c(OCCCC(C)(C)C(=O)O)c1 [GEMFIBROZIL] gave a Ki ([1]; read-out: Ki) of 1.86 µM and a Ki ([3]; read-out: Ki) of 179 µM.
With CC(C(=O)O)c1ccc(-c2ccccc2)c(F)c1 (stereo not given) [FLURBIPROFEN] the Ki ([1]; read-out: Ki) was 1.18 µM, the Ki [2] was 26 µM and the Ki ([3]; read-out: Ki) was 222 µM.
